{
  "source": "paper PMC11111404",
  "about": "“Discovery of potent small-molecule inhibitors of lipoprotein(a) formation” (Nature, 2024)",
  "key": {"apo(a) KIV8": {"target": "T1, apo(a) KIV8 (Homo sapiens, UniProt P08519)", "T1 construct": "made in house", "T1 sequence (P08519 1387-1465 limits assumed)": "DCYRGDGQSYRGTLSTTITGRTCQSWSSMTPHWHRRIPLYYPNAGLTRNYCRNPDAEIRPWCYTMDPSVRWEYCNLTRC", "assay": "ITC binding to apo(a) KIV8", "method": "(§1) The nucleotide sequence encoding the human LPA gene (NP_005568.2) was inserted into a mammalian expression vector containing a cytomegalovirus promoter. Protein expression was performed by transient transfection of human embryonic kidney 293 (HEK293) cells cultured in serum-free medium. The culture medium was collected five days after transfection and human apo(a) protein was purified using L-lysine affinity chromatography. Nucleotide sequences encoding various KIV domains of human apo(a) and human and rat plasminogen were inserted into a pET21a Escherichia coli expression vector. Bacterial BL21(DE3) was used as the expression host, and the induction of protein expression was performed in 2× TY medium with 1 mM isopropyl β-D-1-thiogalactopyranoside at 37 °C for 5 h. Cells were collected and stored at –80 °C for subsequent protein purification and refolding. […] All protein concentrations were determined by A280.\n(§2) Experiments were performed on a MicroCal Auto-iTC200 titration calorimeter (Malvern Panalytical), with a cell volume of 200 μl and a 40-μl microsyringe. […] The microsyringe was loaded with a solution of the respective compounds, with the concentration measured by quantitative nuclear magnetic resonance, and was inserted into the calorimetric cell prefilled with the respective recombinant proteins of known concentration in ITC buffer. […]"}, "apo(a) KIV5–8": {"target": "T2, apo(a) KIV5–8 (Homo sapiens, UniProt P08519)", "T2 construct": "made in house", "T2 sequence (P08519 1043-1470 limits assumed)": "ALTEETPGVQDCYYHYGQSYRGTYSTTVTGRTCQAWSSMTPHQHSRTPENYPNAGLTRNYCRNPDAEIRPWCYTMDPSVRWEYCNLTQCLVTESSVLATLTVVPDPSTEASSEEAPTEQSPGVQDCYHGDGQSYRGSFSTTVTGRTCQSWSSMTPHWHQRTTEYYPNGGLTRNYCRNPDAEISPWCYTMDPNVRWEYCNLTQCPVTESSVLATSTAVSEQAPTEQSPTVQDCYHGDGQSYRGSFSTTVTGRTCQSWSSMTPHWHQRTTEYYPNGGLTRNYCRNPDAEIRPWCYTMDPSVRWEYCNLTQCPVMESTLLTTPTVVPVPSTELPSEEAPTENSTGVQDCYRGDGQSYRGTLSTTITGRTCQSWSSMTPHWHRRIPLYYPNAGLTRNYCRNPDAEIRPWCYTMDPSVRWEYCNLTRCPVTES", "assay": "ITC binding to apo(a) KIV5–8", "method": "as §1, §2"}, "[1]": {"target": "T3, Lp(a) assembly (recombinant human 16K apo(a) and apoB) (Homo sapiens, UniProt P08519)", "T3 construct": "containing one KIV type 1, six KIV type 2 repeats, one each of KIV types 3–10 and one KV; expressed in transfected cells; host or cells: Conditioned medium of HEK293 (CRL-1573) stably expressing 16K apo(a), combined with conditioned medium of wild-type HepG2 (HB-8065) for endogenous apoB", "T3 sequence (P08519 20-2040)": "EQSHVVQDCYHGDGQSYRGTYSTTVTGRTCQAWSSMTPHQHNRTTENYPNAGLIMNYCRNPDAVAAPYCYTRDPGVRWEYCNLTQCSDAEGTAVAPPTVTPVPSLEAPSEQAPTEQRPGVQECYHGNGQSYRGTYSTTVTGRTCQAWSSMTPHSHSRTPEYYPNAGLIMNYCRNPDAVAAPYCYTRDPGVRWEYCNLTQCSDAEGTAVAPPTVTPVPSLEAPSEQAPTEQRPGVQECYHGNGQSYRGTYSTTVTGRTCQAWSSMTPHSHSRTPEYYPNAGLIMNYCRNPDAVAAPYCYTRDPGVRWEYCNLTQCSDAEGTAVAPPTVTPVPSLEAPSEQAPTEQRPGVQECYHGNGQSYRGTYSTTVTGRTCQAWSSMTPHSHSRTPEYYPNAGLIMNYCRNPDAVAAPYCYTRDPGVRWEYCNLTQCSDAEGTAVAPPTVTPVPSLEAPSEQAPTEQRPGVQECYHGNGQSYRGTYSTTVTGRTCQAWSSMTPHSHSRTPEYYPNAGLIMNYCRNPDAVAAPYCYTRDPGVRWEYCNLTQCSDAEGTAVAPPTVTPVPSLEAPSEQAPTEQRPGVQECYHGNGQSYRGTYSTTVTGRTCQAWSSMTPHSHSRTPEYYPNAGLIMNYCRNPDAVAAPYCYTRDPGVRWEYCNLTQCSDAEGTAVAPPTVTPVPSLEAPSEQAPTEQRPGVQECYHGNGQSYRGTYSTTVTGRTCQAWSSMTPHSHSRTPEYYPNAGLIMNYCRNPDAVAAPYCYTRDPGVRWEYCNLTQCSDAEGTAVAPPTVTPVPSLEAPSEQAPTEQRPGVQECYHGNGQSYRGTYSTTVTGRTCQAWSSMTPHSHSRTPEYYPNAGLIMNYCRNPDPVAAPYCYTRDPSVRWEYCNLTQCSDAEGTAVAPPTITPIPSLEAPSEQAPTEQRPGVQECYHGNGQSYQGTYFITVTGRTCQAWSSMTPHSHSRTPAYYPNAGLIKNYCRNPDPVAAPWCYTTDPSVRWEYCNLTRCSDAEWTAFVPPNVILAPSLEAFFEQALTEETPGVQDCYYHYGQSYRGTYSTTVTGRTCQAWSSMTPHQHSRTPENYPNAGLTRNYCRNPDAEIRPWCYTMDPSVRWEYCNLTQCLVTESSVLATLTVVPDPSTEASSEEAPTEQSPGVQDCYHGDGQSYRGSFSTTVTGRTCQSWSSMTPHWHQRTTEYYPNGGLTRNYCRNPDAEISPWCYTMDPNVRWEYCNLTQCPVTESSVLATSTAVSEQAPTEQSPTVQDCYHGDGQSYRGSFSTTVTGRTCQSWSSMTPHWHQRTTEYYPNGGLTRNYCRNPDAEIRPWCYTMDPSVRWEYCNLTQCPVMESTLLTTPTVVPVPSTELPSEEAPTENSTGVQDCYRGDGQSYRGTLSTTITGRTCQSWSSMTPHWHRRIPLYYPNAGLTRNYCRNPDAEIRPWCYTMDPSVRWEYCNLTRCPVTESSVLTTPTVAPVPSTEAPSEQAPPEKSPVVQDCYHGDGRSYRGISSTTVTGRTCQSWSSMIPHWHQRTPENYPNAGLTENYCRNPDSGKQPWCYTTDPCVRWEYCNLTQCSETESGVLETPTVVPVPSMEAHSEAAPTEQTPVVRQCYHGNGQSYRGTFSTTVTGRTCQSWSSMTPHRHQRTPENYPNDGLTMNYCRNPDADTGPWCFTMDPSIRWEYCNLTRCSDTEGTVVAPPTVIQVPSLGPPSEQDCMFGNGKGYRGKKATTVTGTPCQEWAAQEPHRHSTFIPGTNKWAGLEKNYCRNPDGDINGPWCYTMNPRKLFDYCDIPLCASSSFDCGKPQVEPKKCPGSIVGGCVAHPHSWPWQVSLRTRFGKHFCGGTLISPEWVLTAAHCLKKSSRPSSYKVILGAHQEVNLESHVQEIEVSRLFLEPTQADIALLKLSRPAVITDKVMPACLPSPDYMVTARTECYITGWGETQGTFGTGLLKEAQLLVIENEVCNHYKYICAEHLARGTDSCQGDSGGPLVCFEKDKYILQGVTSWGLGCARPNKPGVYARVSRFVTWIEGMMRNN", "assay": "In vitro Lp(a) assembly assay", "format": "biochemical", "quoted_text": "HepG2 cells (HB-8065, ATCC) were cultured in Dulbecco’s modified Eagle’s medium, supplemented with 10% fetal bovine serum, 20 mM 4-(2-hydroxyethyl)-1-piperazineethanesulfonic acid (HEPES) and 100 U ml^−1 penicillin–streptomycin. apoB-conditioned media were collected after 24 h of culture at 37 °C and 5% CO2 from confluent wild-type HepG2 cells that endogenously express and secrete apoB. Apo(a)-conditioned media were collected after 24 h of culture at 37 °C and 5% CO2 from HEK293 cells (CRL-1573, ATCC) that stably express and secrete recombinant human 16K apo(a) protein containing one KIV type 1, six KIV type 2 repeats, one each of KIV types 3–10 and one KV.\nThe assembly assay was conducted in 96-well polypropylene plates by combining HepG2 and apo(a)-HEK293-conditioned media in the presence of a range of compound concentrations. After a two-hour incubation period at 37 °C, the reaction was stopped by the addition of 6-aminocaproic acid. Lp(a) was detected using a sandwich enzyme-linked immunosorbent assay (ELISA), with a polyclonal goat anti-apo(a) capture antibody (Abcam ab31675) and a biotin-conjugated, polyclonal goat anti-apoB detection antibody (Abcam ab20898). In brief, ELISA plates were coated with 100 μl of the capture antibody at a 1:12,500 dilution (around 4 μg ml^−1) into HEPES-buffered saline (HBS), incubated overnight at 4 °C, washed and blocked by the addition of 200 μl of 1% casein. After removal of the blocking buffer, 20 μl of each of the assembly reactions or of a dilution series of purified human Lp(a) (Athens Research, 12-16-121601), diluted 1:5 into HBS supplemented with 0.5% casein, were added to the ELISA plate. […] Absorbance at 450 nm was measured on an Envision plate reader.\nThe concentration of Lp(a) formed in each test condition was determined on the basis of the standard curve constructed from the purified human Lp(a) used as a reference standard, and was normalized to high (buffer) and low (no apoB) controls. […] Data were analysed in GraphPad Prism v.9.5.1."}, "plasminogen": {"target": "T4, plasminogen (Rattus norvegicus, UniProt Q01177)", "T4 construct": "Plasma samples were collected via the abdominal aorta; from tissue; host or cells: Citrated plasma of orally dosed male Sprague Dawley rats", "T4 sequence (Q01177 20-812 limits assumed)": "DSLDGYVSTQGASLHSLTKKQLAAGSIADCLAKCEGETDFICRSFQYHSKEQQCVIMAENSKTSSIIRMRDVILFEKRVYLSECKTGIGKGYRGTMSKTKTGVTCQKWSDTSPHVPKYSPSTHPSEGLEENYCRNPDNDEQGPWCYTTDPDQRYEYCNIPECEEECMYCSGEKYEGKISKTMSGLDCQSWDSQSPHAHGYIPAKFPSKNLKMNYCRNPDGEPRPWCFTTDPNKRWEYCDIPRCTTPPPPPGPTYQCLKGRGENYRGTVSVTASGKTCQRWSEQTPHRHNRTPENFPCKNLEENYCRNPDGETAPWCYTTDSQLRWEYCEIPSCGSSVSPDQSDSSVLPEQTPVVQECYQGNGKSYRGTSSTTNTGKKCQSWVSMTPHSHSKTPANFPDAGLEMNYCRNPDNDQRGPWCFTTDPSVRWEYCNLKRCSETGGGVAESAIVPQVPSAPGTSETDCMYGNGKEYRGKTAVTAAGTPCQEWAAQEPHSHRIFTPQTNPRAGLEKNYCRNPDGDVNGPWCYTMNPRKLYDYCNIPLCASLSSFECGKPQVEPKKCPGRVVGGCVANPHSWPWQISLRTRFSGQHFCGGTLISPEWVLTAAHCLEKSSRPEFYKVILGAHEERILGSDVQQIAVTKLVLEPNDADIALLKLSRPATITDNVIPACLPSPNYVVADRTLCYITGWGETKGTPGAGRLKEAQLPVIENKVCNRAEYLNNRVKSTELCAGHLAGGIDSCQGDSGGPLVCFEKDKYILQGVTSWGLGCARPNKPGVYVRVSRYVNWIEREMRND", "assay": "Rat plasma plasminogen concentration (ELISA) after oral dosing", "format": "in vivo", "conditions": "for PLG mass, Plasminogen (mean of replicates) / PLG mass, Replicate 1 / PLG mass, Replicate 2: rat plasma, individual animal", "method": "Male Sprague Dawley rats (Charles River, average body weight 310 g, aged eight to nine weeks old) were housed in cages with a standard light cycle (12-h light, 12-h dark), at room temperature (22 ± 4 °C), with a relative humidity of 30–70%. Rats were identified by numbers on the cage cards. After arrival, rats were fed on a normal diet (Harlan Teklad diet 2014) and randomized to treatment groups (n = 5 per group) by baseline plasma plasminogen concentration and activity using a BRAT. LSN3441732 and LY3473329 were administered QD orally at three dose levels (3.7, 12.3 and 37 mg kg^−1; 3.2, 10.5 and 31.6 mg kg^−1 per dose, respectively) or vehicle (10 ml kg^−1, 1% HEC, 0.25% Tween-80, Antifoam) for four days. Terminal blood was drawn under general anaesthesia 24 h after the day-4 oral dose. Plasma samples were collected via the abdominal aorta into a premeasured anticoagulant BD Vacutainer used for blood collection (2.7 ml, buffered sodium citrate). The liver was flash frozen in liquid nitrogen. To measure plasminogen activity, 100 µl plasma per well was added to a 96-well plate (Corning) and the following were added to the indicated concentrations: 7.5 mM CaCl2 and 117 mM NaCl. Wells were mixed and warmed to 37 °C. Urokinase (Millipore) was added at 125 U per well and the plate was incubated at 37 °C for 4 min. The plasminogen substrate Chromogenix S-2251 (DiaPharma) was added to a concentration of 3.3 mM. The mixture was added and the plate was sealed and placed in a prewarmed plate reader, shaken, and the absorbance read every 30 s for 2 h. The maximum slope for each curve was determined and the percentage inhibition was calculated relative to untreated controls. Plasminogen protein was measured using ELISA kits for rat (Abcam ab157740) according to the manufacturer’s instructions. Plasminogen activity (percentage) and mass (µg ml^−1) in rat were analysed by ANOVA in JMP 16.1.0. The percentage reduction of plasminogen activity and mass for each treated group was compared with vehicle by Dunnett’s method."}, "plasmin activity": {"system": "plasmin activity", "set-up": "method as in PMID 37638695", "conditions": "human phase 1 study; cited from earlier work"}, "[2]": {"conditions": "3441732 dose 3.7 mpk, 3.7 mg/kg"}, "[3]": {"conditions": "3441732 dose 12.3 mpk, 12.3 mg/kg"}, "[4]": {"conditions": "3473329 dose 3.2 mpk, 3.2 mg/kg"}, "[5]": {"conditions": "3473329 dose 10.5 mpk, 10.5 mg/kg"}, "[6]": {"conditions": "3473329 dose 31.6 mpk, 31.6 mg/kg"}},
  "note": "pIC50, pKd: −log10 of the molar value. “And” between values parts separate entries of the source, which are not always exact repeats. Identical values can stand only once.",
  "data": [
    {"smiles": "Cl.Cl.O=C(Nc1cccc(C[C@H](C(=O)O)[C@H]2CCNC2)c1)Nc1cccc(C[C@H](C(=O)O)[C@H]2CCNC2)c1", "note": "[LSN3441732]", "values": [
      {"measurement": "pKd", "setting": "apo(a) KIV8", "result": "> 8.00"},
      {"measurement": "pKd", "setting": "apo(a) KIV5–8", "result": "> 7.82"},
      {"measurement": "pIC50", "setting": "[1]", "result": 9.74},
      {"measurement": "PLG mass, Plasminogen (mean of replicates)", "setting": "plasminogen; [2]", "result": "199.7 µg/mL and 188.1 µg/mL and 194.6 µg/mL and 164.2 µg/mL and 177.8 µg/mL"},
      {"measurement": "PLG mass, Replicate 1", "setting": "plasminogen; [2]", "result": "193.976 µg/mL and 187.308 µg/mL and 191.488 µg/mL and 158.900 µg/mL and 169.900 µg/mL"},
      {"measurement": "PLG mass, Replicate 2", "setting": "plasminogen; [2]", "result": "205.500 µg/mL and 188.992 µg/mL and 197.772 µg/mL and 169.500 µg/mL and 185.664 µg/mL"},
      {"measurement": "PLG mass, Plasminogen (mean of replicates)", "setting": "plasminogen; [3]", "result": "192.7 µg/mL and 158.1 µg/mL and 151.7 µg/mL and 134.6 µg/mL and 119.3 µg/mL"},
      {"measurement": "PLG mass, Replicate 1", "setting": "plasminogen; [3]", "result": "187.144 µg/mL and 151.612 µg/mL and 145.376 µg/mL and 127.920 µg/mL and 115.472 µg/mL"},
      {"measurement": "PLG mass, Replicate 2", "setting": "plasminogen; [3]", "result": "198.344 µg/mL and 164.496 µg/mL and 157.928 µg/mL and 141.248 µg/mL and 123.088 µg/mL"},
      {"measurement": "PLG mass, Plasminogen (mean of replicates)", "setting": "plasminogen; 3441732 dose 37 mpk, 37 mg/kg", "result": "113.7 µg/mL and 124.7 µg/mL and 116.9 µg/mL and 125.1 µg/mL and 127.8 µg/mL"},
      {"measurement": "PLG mass, Replicate 1", "setting": "plasminogen; 3441732 dose 37 mpk, 37 mg/kg", "result": "111.012 µg/mL and 118.768 µg/mL and 109.952 µg/mL and 121.004 µg/mL and 125.228 µg/mL"},
      {"measurement": "PLG mass, Replicate 2", "setting": "plasminogen; 3441732 dose 37 mpk, 37 mg/kg", "result": "116.416 µg/mL and 130.704 µg/mL and 123.756 µg/mL and 129.140 µg/mL and 130.432 µg/mL"},
      {"measurement": "plasma levels of plasminogen protein", "setting": "plasminogen; rats, oral dosing", "result": "decreased in a dose-dependent manner"}
    ]},
    {"smiles": "O=C(O)[C@@H](Cc1cccc(CN(Cc2cccc(C[C@H](C(=O)O)[C@H]3CCNC3)c2)Cc2cccc(C[C@H](C(=O)O)[C@H]3CCNC3)c2)c1)[C@H]1CCNC1", "note": "[LY3473329]", "values": [
      {"measurement": "pKd", "setting": "apo(a) KIV8", "result": 7.66},
      {"measurement": "pIC50", "setting": "[1]", "result": 10.05},
      {"measurement": "PLG mass, Plasminogen (mean of replicates)", "setting": "plasminogen; [4]", "result": "281.7 µg/mL and 301.7 µg/mL and 249.5 µg/mL and 274.1 µg/mL and 246.9 µg/mL"},
      {"measurement": "PLG mass, Replicate 1", "setting": "plasminogen; [4]", "result": "275.600 µg/mL and 301.472 µg/mL and 251.100 µg/mL and 270.384 µg/mL and 245.604 µg/mL"},
      {"measurement": "PLG mass, Replicate 2", "setting": "plasminogen; [4]", "result": "287.828 µg/mL and 301.932 µg/mL and 247.992 µg/mL and 277.820 µg/mL and 248.160 µg/mL"},
      {"measurement": "PLG mass, Plasminogen (mean of replicates)", "setting": "plasminogen; [5]", "result": "239.9 µg/mL and 236.1 µg/mL and 242.7 µg/mL and 225.5 µg/mL and 223.8 µg/mL"},
      {"measurement": "PLG mass, Replicate 1", "setting": "plasminogen; [5]", "result": "241.392 µg/mL and 228.556 µg/mL and 235.352 µg/mL and 212.812 µg/mL and 213.952 µg/mL"},
      {"measurement": "PLG mass, Replicate 2", "setting": "plasminogen; [5]", "result": "238.436 µg/mL and 243.736 µg/mL and 249.956 µg/mL and 238.240 µg/mL and 233.564 µg/mL"},
      {"measurement": "PLG mass, Plasminogen (mean of replicates)", "setting": "plasminogen; [6]", "result": "199.2 µg/mL and 187.7 µg/mL and 187.4 µg/mL and 229.5 µg/mL and 225.0 µg/mL"},
      {"measurement": "PLG mass, Replicate 1", "setting": "plasminogen; [6]", "result": "197.560 µg/mL and 179.928 µg/mL and 183.640 µg/mL and 229.888 µg/mL and 216.732 µg/mL"},
      {"measurement": "PLG mass, Replicate 2", "setting": "plasminogen; [6]", "result": "200.844 µg/mL and 195.380 µg/mL and 191.112 µg/mL and 229.028 µg/mL and 233.256 µg/mL"},
      {"measurement": "plasmin activity at oral doses lowering Lp(a)", "setting": "plasmin activity", "result": "without affecting plasmin activity"}
    ]}
  ]
}
